Each compound was assayed against T1, Recombinant human CBP containing the bromodomain (CBP-BD (1043-1159)) (Homo sapiens, UniProt Q92793) (assay: CBP Alphascreen binding assay). Conditions: read-out: CREBBP (CBP) IC50.
T1 construct: Recombinant human CBP bromodomain (CBP-BD (1043-1159)); made in house; host or cells: E. coli BL21-CodonPlus (DE3), modified pET vector
T1 sequence (Q92793 1081-1197): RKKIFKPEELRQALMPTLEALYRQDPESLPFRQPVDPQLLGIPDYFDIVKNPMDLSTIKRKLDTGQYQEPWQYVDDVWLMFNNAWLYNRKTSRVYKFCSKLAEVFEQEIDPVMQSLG
Procedure, shortened: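 Buffer: 50 mM HEPES pH 7.5, 50 mM NaCl, 0.01% BSA, 0.01% Triton X-100, 2 mM DTT. The signal was normalised to plate controls and fitted with a four-parameter curve to give IC50.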
Cc1noc(C)c1-c1cnc2c(c1)c(-c1ccc(C(N)=O)cc1)cn2C(c1ccccn1)C1CCCC1 (stereo not drawn) [P-0020, 4-(1-(cyclopentyl(pyridin-2-yl)methyl)-5-(3,5-dimethylisoxazol-4-yl)-1H-pyrrolo[2,3-b]pyridin-3-yl)benzamide] gave an IC50 of 1 to 8 µM. For CNC(=O)c1ccc(-c2cn(C(c3ccccn3)C3CCCC3)c3ncc(-c4c(C)noc4C)cc23)cc1 (stereo not drawn) [P-0021, 4-(1-(cyclopentyl(pyridin-2-yl)methyl)-5-(3,5-dimethylisoxazol-4-yl)-1H-pyrrolo[2,3-b]pyridin-3-yl)-N-methylbenzamide], the IC50 was 1 to 8 µM. For Cc1noc(C)c1-c1cnc2c(c1)c(-c1ccc(C#N)cc1)cn2C(c1ccccn1)C1CCCC1 (stereo not drawn) [P-0022, 4-(1-(cyclopentyl(pyridin-2-yl)methyl)-5-(3,5-dimethylisoxazol-4-yl)-1H-pyrrolo[2,3-b]pyridin-3-yl)benzonitrile], the IC50 was 8 to 1000 µM. With Cc1noc(C)c1-c1cnc2c(c1)c(-c1ccc3c(c1)CNC3=O)cn2C(c1ccccn1)C1CCCC1 (stereo not drawn) [P-0023, 5-(1-(cyclopentyl(pyridin-2-yl)methyl)-5-(3,5-dimethylisoxazol-4-yl)-1H-pyrrolo[2,3-b]pyridin-3-yl)isoindolin-1-one] the IC50 was 1 to 8 µM. Work on Cc1noc(C)c1-c1cnc2c(c1)c(-c1ccc(-c3nn[nH]n3)cc1)cn2C(c1ccccn1)C1CCCC1 (stereo not drawn) [P-0024, 4-(3-(4-(2H-tetrazol-5-yl)phenyl)-1-(cyclopentyl(pyridin-2-yl)methyl)-1H-pyrrolo[2,3-b]pyridin-5-yl)-3,5-dimethylisoxazole] yielded an IC50 of 1 to 8 µM. Compound Cc1noc(C)c1-c1cnc2c(c1)c(-c1ccc(C(=O)O)c(F)c1)cn2C(c1ccccn1)C1CCCC1 (stereo not drawn) [P-0025, 4-(1-(cyclopentyl(pyridin-2-yl)methyl)-5-(3,5-dimethylisoxazol-4-yl)-1H-pyrrolo[2,3-b]pyridin-3-yl)-2-fluorobenzoic acid] has an IC50 of 0.0001 to 1 µM. In the case of Cc1noc(C)c1-c1cnc2c(c1)c(-c1ccc(C(=O)O)nc1)cn2C(c1ccccn1)C1CCCC1 (stereo not drawn) [P-0026, 5-(1-(cyclopentyl(pyridin-2-yl)methyl)-5-(3,5-dimethylisoxazol-4-yl)-1H-pyrrolo[2,3-b]pyridin-3-yl)picolinic acid], the IC50 is reported as 0.0001 to 1 µM. Cc1cc(-c2c(C(F)(F)F)n([C@@H](C)c3ccccn3)c3cc(-c4c(C)noc4C)cnc23)ccc1C(=O)O [P-0243, (S)-4-(6-(3,5-dimethylisoxazol-4-yl)-1-(1-(pyridin-2-yl)ethyl)-2-(trifluoromethyl)-1H-pyrrolo[3,2-b]pyridin-3-yl)-2-methylbenzoic acid] was tested, and the IC50 was 1 to 8 µM. COc1cc(-c2c(C(F)(F)F)n([C@@H](C)c3ccccn3)c3cc(-c4c(C)noc4C)cnc23)ccc1C(=O)O [P-0244, (S)-4-(6-(3,5-dimethylisoxazol-4-yl)-1-(1-(pyridin-2-yl)ethyl)-2-(trifluoromethyl)-1H-pyrrolo[3,2-b]pyridin-3-yl)-2-methoxybenzoic acid] showed an IC50 of 1 to 8 µM. Compound Cc1noc(C)c1-c1cnc2c(-c3cccc(C(=O)O)c3F)c(C(F)(F)F)n([C@@H](C)c3ccccn3)c2c1 [P-0245, (S)-3-(6-(3,5-dimethylisoxazol-4-yl)-1-(1-(pyridin-2-yl)ethyl)-2-(trifluoromethyl)-1H-pyrrolo[3,2-b]pyridin-3-yl)-2-fluorobenzoic acid] has an IC50 of 0.0001 to 1 µM. For Cc1noc(C)c1-c1cnc2c(-c3cccc(C(=O)O)c3C)c(C(F)(F)F)n([C@@H](C)c3ccccn3)c2c1 [P-0246, (S)-3-(6-(3,5-dimethylisoxazol-4-yl)-1-(1-(pyridin-2-yl)ethyl)-2-(trifluoromethyl)-1H-pyrrolo[3,2-b]pyridin-3-yl)-2-methylbenzoic acid], the IC50 was 1 to 8 µM. Work on Cc1noc(C)c1-c1cnc2c(-c3cccc(C(=O)O)c3Cl)c(C(F)(F)F)n([C@@H](C)c3ccccn3)c2c1 [P-0247, (S)-2-chloro-3-(6-(3,5-dimethylisoxazol-4-yl)-1-(1-(pyridin-2-yl)ethyl)-2-(trifluoromethyl)-1H-pyrrolo[3,2-b]pyridin-3-yl)benzoic acid] yielded an IC50 of 0.0001 to 1 µM.

Reference: US11446287B2, “Compounds and methods for EP300 or CBP modulation and indications therefor” (Opna Immuno-Oncology SA, priority 2019, dated 2022)
